{"source": "patent US8192962B2", "about": "“Processes for detecting toxic substances” (Daikin Industries, Ltd., priority 2001, dated 2012)", "test_system": "Transport facilitation protein genes", "assay": "DNA chip mRNA expression in yeast, transport facilitation protein genes (Table 5)", "assay_type": "cell-based, Saccharomyces cerevisiae S288C", "experimental": "Yeast (Saccharomyces cerevisiae S288C (α SUC2mal mel gap2 CUP1)) were incubated at 25° C. on YPD medium (yeast extract 1%, polypepton 2%, glucose 2%). One of toxic chemical substances was added to the cells at logarithmic growth phase, and the cells were further incubated for two hours. Cells were cultured without any chemical substance in the same condition, and were used as control. Concentrations of the chemical substances were defined to inhibit the growth of the yeast but not lead to death.\nAfter completion of the incubation, the culture was centrifuged to collect the cells. To the cells, sodium acetate buffer (50 mM sodium acetate, 10 mM EDTA, 1% SDS) was added, and the mixture was shaken at 65° C. for five minutes, followed by returning to room temperature, and obtaining the supernatant, of which the procedures were repeated two times. To the supernatant, ½ amount of a solution of phenol/chloroform was added, and the mixture was centrifuged to give a supernatant, which was added with an equal amount of chloroform, and the mixture was centrifuged to give a supernatant. To the supernatant, an equal amount of isopropanol containing 0.3 M sodium acetate was added, and the mixture was allowed to stand at room temperature for 30 minutes, after which the mixture was centrifuged to give a sediment of the whole RNAs. Seventy % ethanol was added to the sediment, and the mixture was again centrifuged to give a sediment, which was then dried and dissolved in water. mRNA was isolated from the whole RNAs as followings. In view of the fact that a poly A chain is attached to the 3′ terminus of mRNA, a polynucleotide having a poly T structure which was immobilized on the surface of latex beads was used to trap the mRNA, and then the mRNA was washed and eluted with spine column (Oligotex-dT30<Super>mRNA Purification Kit, Takara). Reverse transcription of the mRNA was conducted with a reverse transcriptase (Super Script II Reverse Transcriptase; catalogue No. 18064-014, GibcoBRL) using fluorescence-labeled nucleotides to give cDNAs that were introduced with Cy3-dUTP or Cy5-dUTP during the reverse transcription.\nThe labeled cDNAs were dissolved in TE buffer (10mM Tris-HCl/1 mM EDTA, pH8.0), and the solution was dropped on the DNA chip containing the whole genes of yeast (DNA Chip Research Inc. Japan) so that the cDNAs were hybridized on the DNA chip at 65° C. for over 12 hours. The fluoresces intensity of the DNA chip was read with a scanner, and the ratio relative to the fluorescence intensity resulting from the absence of chemical substance was estimated as the following, which is shown in Tables 1 to 9: […]", "data": [{"smiles": "CCCCCCCCCCCCc1ccc(S(=O)(=O)[O-])cc1.[Na+]", "note": "[(17), sodium dodecylbenzosulfonate]", "values": [{"measurement": "The level of expressed mRNA in the presence of chemical substance/The level of expressed mRNA in the absence of chemical substance", "setting": "yeast gene YBL030C", "result": 1.0}, {"measurement": "The level of expressed mRNA in the presence of chemical substance/The level of expressed mRNA in the absence of chemical substance", "setting": "yeast gene YBL099W", "result": 0.7}, {"measurement": "The level of expressed mRNA in the presence of chemical substance/The level of expressed mRNA in the absence of chemical substance", "setting": "yeast gene YBR052C", "result": 1.8}, {"measurement": "The level of expressed mRNA in the presence of chemical substance/The level of expressed mRNA in the absence of chemical substance", "setting": "yeast gene YBR068C", "result": 1.1}, {"measurement": "The level of expressed mRNA in the presence of chemical substance/The level of expressed mRNA in the absence of chemical substance", "setting": "yeast gene YBR127C", "result": 0.8}, {"measurement": "The level of expressed mRNA in the presence of chemical substance/The level of expressed mRNA in the absence of chemical substance", "setting": "yeast gene YBR132C", "result": 1.1}, {"measurement": "The level of expressed mRNA in the presence of chemical substance/The level of expressed mRNA in the absence of chemical substance", "setting": "yeast gene YBR207W", "result": 1.2}, {"measurement": "The level of expressed mRNA in the presence of chemical substance/The level of expressed mRNA in the absence of chemical substance", "setting": "yeast gene YBR293W", "result": 1.0}, {"measurement": "The level of expressed mRNA in the presence of chemical substance/The level of expressed mRNA in the absence of chemical substance", "setting": "yeast gene YBR294W", "result": 1.0}, {"measurement": "The level of expressed mRNA in the presence of chemical substance/The level of expressed mRNA in the absence of chemical substance", "setting": "yeast gene YBR295W", "result": 1.3}, {"measurement": "The level of expressed mRNA in the presence of chemical substance/The level of expressed mRNA in the absence of chemical substance", "setting": "yeast gene YBR298C", "result": 0.9}, {"measurement": "The level of expressed mRNA in the presence of chemical substance/The level of expressed mRNA in the absence of chemical substance", "setting": "yeast gene YCL025C", "result": 0.6}, {"measurement": "The level of expressed mRNA in the presence of chemical substance/The level of expressed mRNA in the absence of chemical substance", "setting": "yeast gene YCL038C", "result": 1.4}, {"measurement": "The level of expressed mRNA in the presence of chemical substance/The level of expressed mRNA in the absence of chemical substance", "setting": "yeast gene YCR024C-A", "result": 0.9}, {"measurement": "The level of expressed mRNA in the presence of chemical substance/The level of expressed mRNA in the absence of chemical substance", "setting": "yeast gene YCR037C", "result": 1.4}, {"measurement": "The level of expressed mRNA in the presence of chemical substance/The level of expressed mRNA in the absence of chemical substance", "setting": "yeast gene YCR098C", "result": 1.7}, {"measurement": "The level of expressed mRNA in the presence of chemical substance/The level of expressed mRNA in the absence of chemical substance", "setting": "yeast gene YDL128W", "result": 0.9}, {"measurement": "The level of expressed mRNA in the presence of chemical substance/The level of expressed mRNA in the absence of chemical substance", "setting": "yeast gene YDL198C", "result": 1.5}, {"measurement": "The level of expressed mRNA in the presence of chemical substance/The level of expressed mRNA in the absence of chemical substance", "setting": "yeast gene YDL210W", "result": 1.1}, {"measurement": "The level of expressed mRNA in the presence of chemical substance/The level of expressed mRNA in the absence of chemical substance", "setting": "yeast gene YDL245C", "result": 1.0}, {"measurement": "The level of expressed mRNA in the presence of chemical substance/The level of expressed mRNA in the absence of chemical substance", "setting": "yeast gene YDR038C", "result": 1.3}, {"measurement": "The level of expressed mRNA in the presence of chemical substance/The level of expressed mRNA in the absence of chemical substance", "setting": "yeast gene YDR039C", "result": 1.1}, {"measurement": "The level of expressed mRNA in the presence of chemical substance/The level of expressed mRNA in the absence of chemical substance", "setting": "yeast gene YDR086C", "result": 1.4}, {"measurement": "The level of expressed mRNA in the presence of chemical substance/The level of expressed mRNA in the absence of chemical substance", "setting": "yeast gene YDR270W", "result": 0.9}, {"measurement": "The level of expressed mRNA in the presence of chemical substance/The level of expressed mRNA in the absence of chemical substance", "setting": "yeast gene YDR298C", "result": 1.1}, {"measurement": "The level of expressed mRNA in the presence of chemical substance/The level of expressed mRNA in the absence of chemical substance", "setting": "yeast gene YDR342C", "result": 1.0}, {"measurement": "The level of expressed mRNA in the presence of chemical substance/The level of expressed mRNA in the absence of chemical substance", "setting": "yeast gene YDR343C", "result": 1.1}, {"measurement": "The level of expressed mRNA in the presence of chemical substance/The level of expressed mRNA in the absence of chemical substance", "setting": "yeast gene YDR345C", "result": 1.3}, {"measurement": "The level of expressed mRNA in the presence of chemical substance/The level of expressed mRNA in the absence of chemical substance", "setting": "yeast gene YDR387C", "result": 1.2}, {"measurement": "The level of expressed mRNA in the presence of chemical substance/The level of expressed mRNA in the absence of chemical substance", "setting": "yeast gene YDR497C", "result": 1.6}, {"measurement": "The level of expressed mRNA in the presence of chemical substance/The level of expressed mRNA in the absence of chemical substance", "setting": "yeast gene YEL027W", "result": 1.0}, {"measurement": "The level of expressed mRNA in the presence of chemical substance/The level of expressed mRNA in the absence of chemical substance", "setting": "yeast gene YEL063C", "result": 0.7}, {"measurement": "The level of expressed mRNA in the presence of chemical substance/The level of expressed mRNA in the absence of chemical substance", "setting": "yeast gene YEL065W", "result": 0.7}, {"measurement": "The level of expressed mRNA in the presence of chemical substance/The level of expressed mRNA in the absence of chemical substance", "setting": "yeast gene YER053C", "result": 1.2}, {"measurement": "The level of expressed mRNA in the presence of chemical substance/The level of expressed mRNA in the absence of chemical substance", "setting": "yeast gene YFL011W", "result": 0.8}, {"measurement": "The level of expressed mRNA in the presence of chemical substance/The level of expressed mRNA in the absence of chemical substance", "setting": "yeast gene YFL041W", "result": 1.1}, {"measurement": "The level of expressed mRNA in the presence of chemical substance/The level of expressed mRNA in the absence of chemical substance", "setting": "yeast gene YFL050C", "result": 0.8}, {"measurement": "The level of expressed mRNA in the presence of chemical substance/The level of expressed mRNA in the absence of chemical substance", "setting": "yeast gene YFL054C", "result": 1.7}, {"measurement": "The level of expressed mRNA in the presence of chemical substance/The level of expressed mRNA in the absence of chemical substance", "setting": "yeast gene YGL006W", "result": 2.4}, {"measurement": "The level of expressed mRNA in the presence of chemical substance/The level of expressed mRNA in the absence of chemical substance", "setting": "yeast gene YGL008C", "result": 1.1}, {"measurement": "The level of expressed mRNA in the presence of chemical substance/The level of expressed mRNA in the absence of chemical substance", "setting": "yeast gene YGL104C", "result": 1.3}, {"measurement": "The level of expressed mRNA in the presence of chemical substance/The level of expressed mRNA in the absence of chemical substance", "setting": "yeast gene YGL167C", "result": 1.4}, {"measurement": "The level of expressed mRNA in the presence of chemical substance/The level of expressed mRNA in the absence of chemical substance", "setting": "yeast gene YGL255W", "result": 0.6}, {"measurement": "The level of expressed mRNA in the presence of chemical substance/The level of expressed mRNA in the absence of chemical substance", "setting": "yeast gene YGR055W", "result": 0.7}, {"measurement": "The level of expressed mRNA in the presence of chemical substance/The level of expressed mRNA in the absence of chemical substance", "setting": "yeast gene YGR065C", "result": 0.7}, {"measurement": "The level of expressed mRNA in the presence of chemical substance/The level of expressed mRNA in the absence of chemical substance", "setting": "yeast gene YGR082W", "result": 0.9}, {"measurement": "The level of expressed mRNA in the presence of chemical substance/The level of expressed mRNA in the absence of chemical substance", "setting": "yeast gene YGR096W", "result": 0.8}, {"measurement": "The level of expressed mRNA in the presence of chemical substance/The level of expressed mRNA in the absence of chemical substance", "setting": "yeast gene YGR138C", "result": 0.7}, {"measurement": "The level of expressed mRNA in the presence of chemical substance/The level of expressed mRNA in the absence of chemical substance", "setting": "yeast gene YGR191W", "result": 0.8}, {"measurement": "The level of expressed mRNA in the presence of chemical substance/The level of expressed mRNA in the absence of chemical substance", "setting": "yeast gene YGR197C", "result": 1.7}]}]}
